Test results as given in PMC5643462, “Encrypted Antimicrobial Peptides from Plant Proteins” (Scientific Reports, 2017).
Values after ≈ are worked out from the molar mass of the structure shown.

Experiments:
[1] = tested on: Pseudomonas aeruginosa; assay: Microbicidal activity (minimal killing concentration), plating on agar; format: cell-based, Pseudomonas aeruginosa ATCC 27853; settings: 10 µL of MIC and raising concentrations up to 256 µM plated on Mueller-Hinton agar; 37 °C, 24 h; no growth; mean ± SD, 3 biological replicates
Protocol: (§1) The microbicidal activity of the IAPS was also evaluated. […] YPD agar and Mueller-Hinton agar were used for fungi/yeasts and bacteria, respectively. Meanwhile, susceptibility microplates were incubated again to evaluate if there would be any growing after a longer period. For both approaches, the minimal killing concentration (MKC) was defined as the concentration that no growth was observed after incubation. Three biological replicates were performed for each test.
(§2) Supplementary Material 07, Table S5
(§3) Table S5. Microorganisms and growth conditions.
(§4) Microorganisms Incubation Incubation Starting cell Growth Medium

[2] = tested on: Xanthomonas campestris; assay: as above; format: cell-based, Xanthomonas campestris pv. citri; settings: 10 µL of MIC and raising concentrations up to 256 µM plated on Mueller-Hinton agar; 28 °C, 24 h; no growth; mean ± SD, 3 biological replicates
Protocol: as §1, §2, §3, §4
(§5) Temperature (°C) Time (h) concentration
(§6) Erwinia carotovora 28 24 5.0 x 10 5 Mueller -Hinton
(§7) Xanthomonas campestris pv. citri 28 24 5.0 x 10 5 Mueller -Hinton
(§8) Pseudomonas syringae pv. tabaci 28 24 5.0 x 10 5 Mueller -Hinton

[3] = tested on: Bacillus subtilis; assay: as above; format: cell-based, Bacillus subtilis ATCC 23857; settings: 10 µL of MIC and raising concentrations up to 256 µM plated on Mueller-Hinton agar; 37 °C, 24 h; no growth; mean ± SD, 3 biological replicates
Protocol: as §1, §2, §3, §4

[4] = tested on: Pseudomonas syringae pv. tabaci; assay: as above; format: cell-based; settings: 10 µL of MIC and raising concentrations up to 256 µM plated on Mueller-Hinton agar; 28 °C, 24 h; no growth; mean ± SD, 3 biological replicates
Protocol: as §1, §2, §3, §4, §5, §6, §7, §8

[5] = tested on: Erwinia carotovora; assay: as above; format: cell-based; settings: 10 µL of MIC and raising concentrations up to 256 µM plated on Mueller-Hinton agar; 28 °C, 24 h; no growth; mean ± SD, 3 biological replicates
Protocol: as §1, §2, §3, §4, §5, §6, §7, §8

[6] = tested on: Escherichia coli; assay: as above; format: cell-based, Escherichia coli ATCC 25922; settings: 10 µL of MIC and raising concentrations up to 256 µM plated on Mueller-Hinton agar; 37 °C, 24 h; no growth; mean ± SD, 3 biological replicates
Protocol: as §1, §2, §3, §4

[7] = tested on: Bacillus cereus; assay: as above; format: cell-based, Bacillus cereus ATCC 14579; settings: 10 µL of MIC and raising concentrations up to 256 µM plated on Mueller-Hinton agar; 37 °C, 24 h; no growth; mean ± SD, 3 biological replicates
Protocol: as §1, §2, §3, §4

[8] = tested on: Staphylococcus aureus; assay: as above; format: cell-based, Staphylococcus aureus ATCC 25923; settings: 10 µL of MIC and raising concentrations up to 256 µM plated on Mueller-Hinton agar; 37 °C, 24 h; no growth; mean ± SD, 3 biological replicates
Protocol: as §1, §2, §3, §4, §5, §6, §7, §8

[9] = tested on: Escherichia coli; assay: microbe, parasite or virus in culture; settings: Escherichia coli, ATCC25922, 24 h, read-out: Minimum inhibitory concentration, Escherichia coli
Protocol: (§9) The susceptibility test of microorganisms was performed to evaluate the inhibitory activity of the IAPs. Protocols M7-A10[50], M27-A3[51] and M38-A2[52] from Clinical & Laboratory Standards Institute (CLSI) were used for bacteria, yeasts and filamentous fungi tests, respectively. Briefly, different concentration of IAPs (256-0.5 µM) were tested against 16 microorganisms, in a final volume of 100 µL. Media conditions, final cell concentration and incubation conditions are presented in Supplementary Material 07, Table S5. Three biological repetitions, with 2 technical replicates each, were performed for each test, on polystyrene flat-bottom 96 wells microplates. The minimum inhibitory concentration (MIC) was defined as the concentration that no cells/hyphae were detected when visualized by optical microscopy.
as §2, §3

[10] = tested on: Pseudomonas syringae pv. tabaci; assay: microbe, parasite or virus in culture; settings: Pseudomonas syringae, 24 h, read-out: Minimum inhibitory concentration, Pseudomonas syringae pv. tabaci
Protocol: as §9, §2, §3

[11] = tested on: Xanthomonas campestris; assay: microbe, parasite or virus in culture; settings: Xanthomonas campestris, 24 h, read-out: Minimum inhibitory concentration, Xanthomonas campestris
Protocol: as §9, §2, §3

[12] = tested on: Staphylococcus aureus; assay: microbe, parasite or virus in culture; settings: Staphylococcus aureus, ATCC25923, 24 h, read-out: Minimum inhibitory concentration, Staphylococcus aureus
Protocol: as §9, §2, §3

[13] = tested on: Bacillus cereus; assay: microbe, parasite or virus in culture; settings: Bacillus cereus, ATCC14579, 24 h, read-out: Minimum inhibitory concentration, Bacillus cereus
Protocol: as §9, §2, §3

[14] = tested on: Bacillus subtilis; assay: microbe, parasite or virus in culture; settings: Bacillus subtilis, ATCC23857, 24 h, read-out: Minimum inhibitory concentration, Bacillus subtilis
Protocol: as §9, §2, §3

[15] = tested on: Erwinia carotovora; assay: microbe, parasite or virus in culture; settings: Pectobacterium carotovorum, 24 h, read-out: Minimum inhibitory concentration, Erwinia carotovora
Protocol: as §9, §2, §3

[16] = tested on: Pseudomonas aeruginosa; assay: microbe, parasite or virus in culture; settings: Pseudomonas aeruginosa, ATCC27853, 24 h, read-out: Minimum inhibitory concentration, Pseudomonas aeruginosa
Protocol: as §9, §2, §3

With `CNC(C)C1CCC(N)C(OC2C(N)CC(N)C(OC3OCC(C)(O)C(NC)C3O)C2O)O1` (stereo not shown) [Gentamicin] the “Minimum microbicidal concentration, Pseudomonas aeruginosa” value [1] was 0.52 ± 0.0 µM, the “Minimum microbicidal concentration, Xanthomonas campestris” value [2] was 0.53 ± 0.0 µM and the “Minimum microbicidal concentration, Bacillus subtilis” value [3] was 0.033 ± 0.0 µM. For the same molecule, the “Minimum microbicidal concentration, Pseudomonas syringae pv. tabaci” value [4] was 0.52 ± 0.0 µM, the “Minimum microbicidal concentration, Erwinia carotovora” value [5] was 0.53 ± 0.0 µM and the “Minimum microbicidal concentration, Escherichia coli” value [6] was 0.52 ± 0.0 µM. For the same molecule, the “Minimum microbicidal concentration, Bacillus cereus” value [7] was 8.37 ± 0.0 µM, the “Minimum microbicidal concentration, Staphylococcus aureus” value [8] was 0.52 ± 0.0 µM and the MIC [9] was 0.52 µM (≈ 0.248 µg/mL). The MIC [10] was 0.52 µM (≈ 0.248 µg/mL), the MIC [11] was 0.53 µM (≈ 0.253 µg/mL) and the MIC [12] was 0.26 µM (≈ 0.124 µg/mL). It also gave an MIC [13] of 8.37 µM (≈ 4 µg/mL), an MIC [14] of 0.033 µM (≈ 0.0158 µg/mL) and an MIC [15] of 0.53 µM (≈ 0.253 µg/mL). The MIC [16] was 0.13 µM (≈ 0.0621 µg/mL).
